Columns and labels:
[1] = system: annual bluegrass (Poa annua L.); assay: Whole plant non-target site resistance experiment, foramsulfuron vs sulfometuron (control and plant height 28 days after treatment); assay type: in vivo
Procedure: A second experiment was conducted to determine if non-target mechanisms could confer resistance to ALS inhibiting herbicides in our annual bluegrass population, POAAN-R3. ALS-resistant (RP1–RP8) and susceptible (S) plants were cultured in plastic conical containers under previously described glasshouse conditions for 28 days before being treated with foramsulfuron (29 g ha^−1) or sulfometuron-methyl (Oust XP; Dupont Professional Products. Wilmington, DE, USA) at 105 g ai ha^−1. Sulfometuron-methyl is an ALS inhibiting herbicide not metabolized by cytochrome P450 monooxygenases; therefore, it can be used to discern if weed populations survive ALS inhibiting herbicide treatment via target- or non-target site based mechanisms (Christopher et al. [1992]). Per label recommendations, sulfometuron-methyl included non-ionic surfactant at 0.25 % v/v. Treatments were mixed in water carrier applied in an enclosed spray chamber, as previously described, on 13 March 2015.
Annual bluegrass control was visually assessed on a 0 (i.e., no control) to 100 % (i.e., complete kill) scale relative to the non-treated 28 days after treatment. After all control data had been collected, plant height data were collected using a ruler placed at the soil surface of each plastic conical container and recording the distance to the tip of the bud leaf. Treatments were arranged as a 9 × 3 factorial with nine plant selections (RP1–RP8, S) and three herbicides (foramsulfuron, sulfometuron-methyl, non-treated) in a completely randomized design with four replications and repeated in separate glasshouses during March 2015.

[2] = biological target: T1, recombinant Arabidopsis thaliana ALS wild-type enzyme (WT—sensitive) (Arabidopsis thaliana, UniProt P17597); assay: biochemical
T1 construct: Protein constructs contained an 85 amino acid N-terminal deletion (chloroplast transit peptide); Hexa-histidine tag (N); made in house
Method in brief: (§1)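 His-tagged enzymes lacking the 85-residue N-terminal transit peptide, expressed and purified. Herbicides in DMSO added; reaction 60 min at 30 °C, stopped with H2SO4, acetolactate converted to acetoin at 56 °C for 15 min.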

[3] = system: ALS in POAAN-R3 and susceptible annual bluegrass plants; design: method as in Brosnan et al. [2015]; conditions: increasing concentrations from 0 to 100 μM; ref Brosnan et al. [2015]; cited from earlier work
[4] = system: recombinant Arabidopsis thaliana ALS variant A205F; assay type: biochemical; conditions: IC50 mutant divided by IC50 sensitive ALS; max inhibitor concentration 1.00 × 10^−04 M
Method in brief: as §1

[5] = system: recombinant Arabidopsis thaliana ALS variant A205V; assay type: biochemical; conditions: IC50 mutant divided by IC50 sensitive ALS; max inhibitor concentration 1.00 × 10^−04 M
Method in brief: as §1

[6] = system: recombinant Arabidopsis thaliana ALS variant W574L; assay type: biochemical; conditions: IC50 mutant divided by IC50 sensitive ALS; max inhibitor concentration 1.00 × 10^−04 M
Method in brief: as §1

T1 sequence (P17597 86-670): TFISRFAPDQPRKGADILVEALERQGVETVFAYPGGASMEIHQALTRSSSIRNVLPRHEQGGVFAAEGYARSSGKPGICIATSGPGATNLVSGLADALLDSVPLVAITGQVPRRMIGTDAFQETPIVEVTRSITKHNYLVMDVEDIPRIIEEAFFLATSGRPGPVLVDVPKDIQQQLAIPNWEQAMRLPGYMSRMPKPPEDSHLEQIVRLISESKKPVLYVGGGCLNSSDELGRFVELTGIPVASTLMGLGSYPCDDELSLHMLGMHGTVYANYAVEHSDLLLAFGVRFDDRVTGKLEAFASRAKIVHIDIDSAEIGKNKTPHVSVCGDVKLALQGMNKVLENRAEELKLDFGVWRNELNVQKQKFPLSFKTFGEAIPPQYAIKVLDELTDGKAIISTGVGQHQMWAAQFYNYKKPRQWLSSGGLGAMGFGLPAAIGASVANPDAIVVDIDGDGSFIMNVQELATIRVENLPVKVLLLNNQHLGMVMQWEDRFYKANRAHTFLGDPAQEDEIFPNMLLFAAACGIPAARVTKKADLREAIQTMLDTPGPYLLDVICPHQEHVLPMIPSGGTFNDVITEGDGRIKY

COc1cc(OC)nc(NC(=O)NS(=O)(=O)c2cc(NC=O)ccc2C(=O)N(C)C)n1 [Foramsulfuron]
Annual bluegrass control RP1 ([1]; RP1, 28 days after treatment, minimum of two tillers, foramsulfuron 29, sulfometuron 105 g ha^−1): 8%
Annual bluegrass height RP1 ([1]; RP1, plant height 28 days after treatment, foramsulfuron 29, sulfometuron 105 g ha^-1, non-treated 118 mm): 77 mm
Annual bluegrass control RP2 ([1]; RP2, 28 days after treatment, minimum of two tillers, foramsulfuron 29, sulfometuron 105 g ha^−1): 2%
Annual bluegrass height RP2 ([1]; RP2, plant height 28 days after treatment, foramsulfuron 29, sulfometuron 105 g ha^-1, non-treated 129 mm): 74 mm
Annual bluegrass control RP3 ([1]; RP3, 28 days after treatment, minimum of two tillers, foramsulfuron 29, sulfometuron 105 g ha^−1): 5%
Annual bluegrass height RP3 ([1]; RP3, plant height 28 days after treatment, foramsulfuron 29, sulfometuron 105 g ha^-1, non-treated 173 mm): 100 mm
Annual bluegrass control RP4 ([1]; RP4, 28 days after treatment, minimum of two tillers, foramsulfuron 29, sulfometuron 105 g ha^−1): 11%
Annual bluegrass height RP4 ([1]; RP4, plant height 28 days after treatment, foramsulfuron 29, sulfometuron 105 g ha^-1, non-treated 140 mm): 85 mm
Annual bluegrass control RP5 ([1]; RP5, 28 days after treatment, minimum of two tillers, foramsulfuron 29, sulfometuron 105 g ha^−1): 8%
Annual bluegrass height RP5 ([1]; RP5, plant height 28 days after treatment, foramsulfuron 29, sulfometuron 105 g ha^-1, non-treated 114 mm): 75 mm
Annual bluegrass control RP6 ([1]; RP6, 28 days after treatment, minimum of two tillers, foramsulfuron 29, sulfometuron 105 g ha^−1): 46%
Annual bluegrass height RP6 ([1]; RP6, plant height 28 days after treatment, foramsulfuron 29, sulfometuron 105 g ha^-1, non-treated 106 mm): 68 mm
Annual bluegrass control RP7 ([1]; RP7, 28 days after treatment, minimum of two tillers, foramsulfuron 29, sulfometuron 105 g ha^−1): 5%
Annual bluegrass height RP7 ([1]; RP7, plant height 28 days after treatment, foramsulfuron 29, sulfometuron 105 g ha^-1, non-treated 125 mm): 75 mm
Annual bluegrass control RP8 ([1]; RP8, 28 days after treatment, minimum of two tillers, foramsulfuron 29, sulfometuron 105 g ha^−1): 3%
Annual bluegrass height RP8 ([1]; RP8, plant height 28 days after treatment, foramsulfuron 29, sulfometuron 105 g ha^-1, non-treated 132 mm): 94 mm
Annual bluegrass control S ([1]; susceptible (S), 28 days after treatment, minimum of two tillers, foramsulfuron 29, sulfometuron 105 g ha^−1): 93%
Annual bluegrass height S ([1]; susceptible (S), plant height 28 days after treatment, foramsulfuron 29, sulfometuron 105 g ha^-1, non-treated 111 mm): 18 mm
IC50 [2]: 7.5 nM
differences in the in vitro activity of ALS in POAAN-R3 and susceptible plants [3]: no differences
Resistance factor A205F [4]: 5160
Resistance factor A205V [5]: 12
Resistance factor W574L [6]: 2013

— PMC4698308, “A new amino acid substitution (Ala-205-Phe) in acetolactate synthase (ALS) confers broad spectrum resistance to ALS-inhibiting herbicides” (Planta, 2015)
